The source made the active and inactive calls. No stated cut-off is given here; in the data, actives have a measured IC50 and inactives only a lower limit.
target: Envelope glycoprotein gp160 (Human immunodeficiency virus 1, UniProt Q6QLK5); assay: inhibitors of HIV fusion peptide binding, primary screen, biochemical, uHTS, fluorescence dequenching (AID 1986)
Sequence (Q6QLK5 whole entry, the tested form may be a part): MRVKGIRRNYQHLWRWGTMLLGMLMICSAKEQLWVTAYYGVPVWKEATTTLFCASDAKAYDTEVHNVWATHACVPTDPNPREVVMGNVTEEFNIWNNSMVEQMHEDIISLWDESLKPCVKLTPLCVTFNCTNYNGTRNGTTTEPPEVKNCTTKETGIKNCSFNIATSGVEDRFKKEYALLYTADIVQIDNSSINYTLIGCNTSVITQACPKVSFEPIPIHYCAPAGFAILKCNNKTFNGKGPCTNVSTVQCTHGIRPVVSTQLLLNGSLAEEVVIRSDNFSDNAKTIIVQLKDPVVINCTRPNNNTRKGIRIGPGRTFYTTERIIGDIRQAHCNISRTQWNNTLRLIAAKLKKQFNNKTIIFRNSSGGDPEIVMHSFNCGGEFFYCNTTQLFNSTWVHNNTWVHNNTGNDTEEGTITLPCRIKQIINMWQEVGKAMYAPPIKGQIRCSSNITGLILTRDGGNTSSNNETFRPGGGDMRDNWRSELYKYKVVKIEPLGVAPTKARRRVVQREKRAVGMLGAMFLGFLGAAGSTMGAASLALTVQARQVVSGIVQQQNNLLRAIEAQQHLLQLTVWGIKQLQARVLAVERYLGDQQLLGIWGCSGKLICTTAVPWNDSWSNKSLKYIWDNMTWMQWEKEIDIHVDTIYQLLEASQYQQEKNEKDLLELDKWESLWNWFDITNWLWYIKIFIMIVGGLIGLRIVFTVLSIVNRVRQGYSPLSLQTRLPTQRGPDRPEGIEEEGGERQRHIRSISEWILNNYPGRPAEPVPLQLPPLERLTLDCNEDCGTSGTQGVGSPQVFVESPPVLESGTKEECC

SMILES	IC50
COc1cc(Cl)cc(C(c2c(C(=O)O)[nH]c3ccccc23)c2c(C(=O)O)[nH]c3ccccc23)c1O	4.81 µM (active)
O=C1N=C(NS(=O)(=O)c2ccccc2)S/C1=C\c1cc([N+](=O)[O-])ccc1O	12.7 µM (active)
N=C1/C(=C/c2ccc(-c3cccc(C(=O)O)c3)o2)C(=O)N=C2SC=C(c3ccccc3)N12	6.34 µM (active)
COc1cc(/C=C2\C(=N)N3N=C(S(C)(=O)=O)SC3=NC2=O)ccc1OS(=O)(=O)c1ccccc1	19.3 µM (active)
CCS(=O)(=O)C1=NSC2=NC(=O)/C(=C\c3ccc(OS(=O)(=O)c4ccccc4)cc3)C(=N)N21	19.9 µM (active)
